In patent publication US20040102454A1, “Phenylahistin and the phenylahistin analogs, a new class of anti-tumor compounds” (priority 1998, published 2004):

Key:
38 tumor cell lines = experiment: Human Cancer Cell Line Panel (HCC panel) assay, whole panel; type: cell-based; conditions: (−)-PLH content 24.1%, read-out: GI50 values, range over 38 cell lines
Description: The antitumor activity of PLH was evaluated by the Human Cancer Cell Line Panel (HCC panel) assay, see Yamori T., Jap. J Cancer Chemother., (1997), 24, 129-35. This HCC panel consists of 38 tumor cell lines including 7 lung cancer, 6 stomach, 6 colon, 5 ovary, 6 central nerve system, 5 breast, 2 kidney and 1 melanoma cell lines. Each tumor cell was seeded in 96-well tissue culture plates and incubated overnight. Various concentrations (5 doses; final 10^−4, 10^−5, 10^−6, 10^−7 and 10^−8 M) of PLH were added, and the cells were incubated for 48 hours. […] All mice were obtained from Japan SLC (Shizuoka, Japan), P388 leukemia cells were obtained from Dainippon Pharmaceuticals Inc. (Osaka, Japan), Lewis Lung Carcinoma from Riken Cell Bank (Tsukuba, Japan), and Colon 26 cells from the National Cancer Center, Japan (Tokyo, Japan).

C. albicans 10231 = experiment: Antifungal susceptibility testing, broth dilution (NCCLS M38-A); type: cell-based, Candida albicans; conditions: Candida albicans; C. albicans 10231; 80% reduction in turbidity; read-out: MIC
Description: (§1) Antifungal susceptibility testing was accomplished according to the methods outlined in the National Committee for Clinical Laboratory Standards, M38-A “Reference Method for Broth Dilution Antifungal Susceptibility Testing of Conidium-Forming Filamentous Fungi; Approved Standard.” This includes testing in RPMI-1640 with glutamine and without bicarbonate, an inoculum size of 0.4-5×10^4, and incubation at 30 or 35° C. for 48 hours. […] Drug concentrations were 0.03-16 μg/ml for the investigational compounds, 0.015-8 μg/ml for itraconazole and griseofulvin.
(§2) The minimum lethal concentration (MLC) was determined by plating […] from the MIC concentration and each concentration above the MIC. […] When a MIC was obtained, a minimum fungicidal concentration (MFC) was determined to assess the fungistatic/fungicidal nature of the compound. […] The compound is scored as fungistatic if the cells are able to resume growth and fungicidal if no regrowth is possible because the compound had killed the organisms.

C. albicans 90028 = experiment: as above; type: cell-based, Candida albicans; conditions: Candida albicans; C. albicans 90028; 80% reduction in turbidity; read-out: MIC
Description: as §1, §2

Row | Compound | GI50 (38 tumor cell lines) | MIC (C. albicans 10231) | MIC (C. albicans 90028)
1 | C=CC(C)(C)c1[nH]cnc1/C=C1\NC(=O)[C@H](Cc2ccccc2)NC1=O (racemic) [PLH, phenylahistin] | 0.23 to 40 µM |  | 
2 | C=CC(C)(C)c1[nH]cnc1/C=C1\NC(=O)[C@H](Cc2ccccc2)NC1=O [(−)-phenylahistin] |  | > 70 µg/mL | > 70 µg/mL
